From paper PMC10397409, “The action of physiological and synthetic steroids on the calcium channel CatSper in human sperm” (Frontiers in Cell and Developmental Biology, 2023)
Like-named read-outs stand apart in the source and are kept apart here.

Key:
Format in all cases: cell-based
CatSper [1] = target: T1, CatSper (Homo sapiens, UniProt Q7RTX7+Q86XQ3+Q8NEC5+Q96P56); test: Inhibition of PGE1-induced Ca2+ influx in human sperm (screen 2 inhibitors)
T1 construct: Motile spermatozoa were selected by a ‘swim-up’ procedure; endogenous in cells; host or cells: motile human spermatozoa (swim-up) from healthy donors
Experimental: (§1) Briefly, motile spermatozoa were selected by swim-up and labeled with the fluorescent calcium indicator Fluo-4 a.m. to image changes in [Ca^2+]i. After centrifugation to remove excess dye, Fluo-4 AM loaded cells were distributed in a 384-wells plate to obtain ∼125,000 cells/well. After measuring basal fluorescence, a first injection of compounds was performed in order to evaluate their effect on [Ca^2+]i alone. This first screen is therefore considered as a screen to search for ‘activators’. Fluorescence was recorded for 12 min during which sperm cells were continuously exposed to compounds. P4 or PGE1 were then added in the same wells to evaluate whether the tested compounds can reduce the ligand-induced activation of CatSper. This second screen was therefore considered to be a search for CatSper ‘inhibitors’.
(§2) Human semen samples were collected from healthy donors by masturbation after a recommended sexual abstinence period of minimum 2 days. Semen samples were allowed to liquefy at 37°C for 15–30 min. Motile spermatozoa were selected by a ‘swim-up’ procedure as previously described ([Strünker et al., 2011]). Briefly, 1 mL of semen was deposited in a 45°-inclined 50 mL Falcon tube with 4 mL of Human Tubular Fluid (HTF) medium containing: 93.8 mM NaCl, 4.7 mM KCl, 0.2 mM MgSO4, 0.37 mM KH2PO4, 2.04 mM CaCl2, 20.98 mM HEPES, 2.78 mM glucose, 21.4 mM Na-lactate, 4 mM NaHCO3, 0.33 mM Na-pyruvate, and the pH was adjusted to 7.35. Motile sperm were allowed to swim at 37°C for 1 hour. The supernatant was collected in 15 mL Falcon tubes and washed twice by centrifugation at 700 x g for 20 min. Sperm were supplemented with 3 mg/mL HSA. Written informed consent was obtained from all donors prior to donation and approved by the Cantonal Ethics Committee of the State of Geneva (CCER #14-147).
(§3) Cells were loaded with the fluorescent Ca^2+ indicator Fluo-4 AM at a final concentration of 2.5 µM for 30 min at 37°C. Excess dye was washed via centrifugation at 700 x g for 20 min and sperm were resuspended in HTF medium to obtain a final concentration of 6.25 x 10^6 cells/mL. 20 μL of cells (corresponding to ∼125,000 cells) loaded with Fluo-4 a.m. were dispensed in a 384-wells plate (Corning, NY, United States) to allow fluorescence measurement. The dye was excited at 480 nm, and emission was recorded at 530 nm. The change in [Ca^2+]i was assessed simultaneously in all wells using a Functional Drug Screening System (FDSS/μCELL) (Hamamatsu Phototonics K.K., Yokohama, Japan) at 37°C. Basal fluorescence was first measured for 30 s. […] P4 and PGE1 were tested at a near-saturating concentration in the HTS in order to evaluate a potential additive or synergistic effect induced by the compounds. Non-specific CatSper inhibitor MDL 12330A was used as a negative control at final concentration of 20 µM while DMSO was used as a vehicle control. For alkalization-induced Ca^2+ measurement, NH4Cl was used as a positive control at a final concentration of 10 mM. Fluorescence was recorded for a total of 16.5 min: 30 s before injection, 12 min after the first injection of the tested compounds, and 4 min after the second injection of either P4 or PGE1. The Prestwick library was tested in technical duplicate. Ca^2+ response curves were normalized using the following formula F−F0/F0×100 , where F 0 is the average of the basal fluorescence prior to the addition of the compound of interest and F corresponds to the fluorescence value at each time point. The ∆F/F0 of the vehicle control (DMSO) was subtracted from all the other values to adjust for dilution and pipetting artifacts. The values of all compounds were normalized to their respective controls.

CatSper [2] = target: T1, CatSper; test: Inhibition of P4-induced Ca2+ influx in human sperm (screen 2 inhibitors)
Experimental: as §1, §2, §3

CatSper [3] = target: T1, CatSper; test: Steroid-induced increase in [Ca2+]i in human sperm (Fluo-4 HTS assay, screen 1 activators); details: for Emax: read-out: Max amplitude (%) (± SD)
Experimental: as §1
Human semen samples were collected from healthy donors by masturbation after a recommended sexual abstinence period of minimum 2 days. Semen samples were allowed to liquefy at 37°C for 15–30 min. […] Motile sperm were allowed to swim at 37°C for 1 hour. The supernatant was collected in 15 mL Falcon tubes and washed twice by centrifugation at 700 x g for 20 min. Sperm were supplemented with 3 mg/mL HSA.
as §3, with “20” for “Cells were loaded with the fluorescent Ca^2+ indicator Fluo-4 AM at a final concentration of 2.5 µM for 30 min at 37°C. Excess dye was washed via centrifugation at 700 x g for 20 min and sperm were resuspended in HTF medium to obtain a final concentration of 6.25 x 10^6 cells/mL. 20”, “Non-specific CatSper inhibitor MDL 12330A was used as a negative control at final concentration of 20 µM while DMSO was used as a vehicle control.” left out, “Fluorescence was recorded for a total of 16.5 min: 30 s before injection, 12 min after the first injection of the tested compounds, and 4 min after the second injection of either P4 or PGE1.” left out
Data are shown as mean ± standard deviation (SD) with “n” referring to the number of independent experiments performed using sperm samples from ≥3 different donors. Statistical analysis and fitting of dose-response relations were performed using GraphPad Prism 8.1.1 (Prism, La Jolla, United States). To generate sigmoidal curves, the concentrations were converted to their respective log values, and the data were normalized using the following formula: 100⋅x/Fmax , where Fmax is the maximum value of the positive control. A four-parameter Hill equation with a variable Hill coefficient was fitted to generate the EC02, EC50, and IC50. Statistical significance between control and treated conditions was evaluated using a one-way analysis of variance (ANOVA), followed by Dunnett´s test. A p-value <0.05 was considered significant.

[4] = Mean IC50 (P4) µM (±SD), P4-induced response, pooled from 3 independent experiments
[5] = EC50 (±SD), increase in [Ca2+]i, dose-response 90 µM to 0.3 nM
[6] = Mean EC50 µM (±SD), pooled from 3 independent experiments
[7] = maximal amplitude of steroid-induced [Ca2+]i increase, relative to P4, 3 independent experiments
[8] = PGE1-induced response, pooled from 3 independent experiments, read-out: Mean IC50 (PGE1) µM (±SD)
[9] = P4-induced response, pooled from 3 independent experiments, read-out: Mean IC50 (P4) µM (±SD)
[10] = pooled from 3 independent experiments, read-out: Mean EC50 µM (±SD)

Compound	Max P4 inhibition (%) (± SD) (CatSper [2]; 3 independent experiments)	Emax (CatSper [3]) [%]	Emax (CatSper [3]; [7]) [%]	IC50 (CatSper [1]; [8]) [µM]	IC50 (CatSper [2]; [9]) [µM]	EC50 (CatSper [3]; [10]) [µM]	other results
CC(=O)O[C@H]1CC[C@@]2(C)C(=CC[C@@H]3[C@@H]2CC[C@]2(C)C(=O)CC[C@@H]32)C1 [Dehydroisoandosterone 3-acetate (DHEA), Dehydroisoandosterone 3-acetate]	82 (±6) %	77	–	–	–	–	IC50 (CatSper [1]): 3.7 µM; IC50 (CatSper [2]; [4]): 1.69 µM; EC02 compared with reported maximum concentration in blood serum (CatSper [3]): EC02 below the reported maximum concentration found in blood serum; EC50 (CatSper [3]; [5]): 0.593 µM; EC50 (CatSper [3]; [6]): 0.584 µM
CC(=O)[C@H]1CC[C@H]2[C@@H]3C=CC4=CC(=O)CC[C@@]4(C)[C@@H]3CC[C@]12C [Dydrogesterone]	94 (±4) %	–	84	–	–	–	IC50 (CatSper [1]): 44.8 µM; IC50 (CatSper [2]; IC50 (±SD), inhibition of P4-induced Ca2+ response, dose-response 90 µM to 0.3 nM): 0.245 µM; IC50 (CatSper [2]; [4]): 0.24 µM; EC02 compared with reported maximum concentration in blood serum (CatSper [3]): EC02 below the reported maximum concentration found in blood serum; effective concentrations as low as (dose-dependent increase in [Ca2+]i) (CatSper [3]): 10 nM; EC50 (CatSper [3]; [5]): 0.13 µM; EC50 (CatSper [3]; [6]): 0.104 µM
C[C@]12CC[C@@H](O)C[C@@H]1CC[C@@H]1[C@@H]2CC[C@]2(C)C(=O)CC[C@@H]12 [androsterone]	61 (±6) %	70	–	–	–	–	IC50 (CatSper [1]): 5.38 µM; IC50 (CatSper [2]; [4]): 2.11 µM; EC50 (CatSper [3]; [6]): 1.02 µM
CCCC1O[C@@H]2C[C@H]3[C@@H]4CCC5=CC(=O)C=C[C@]5(C)[C@H]4[C@@H](O)C[C@]3(C)[C@]2(C(=O)CO)O1 (some centres unmarked) [budesonide]	3 (±8) %	–	7	> 100	–	–	–
C[C@]12CCC(=O)C=C1C=C[C@@H]1[C@@H]2CC[C@@]2(C)[C@H]1CC[C@@]2(O)CCC(=O)[O-].[K+] [canrenoic acid potassium salt]	27 (±10) %	–	–	16.3	23.2	23.4	Max amplitude (%) (± SD) (CatSper [3]; [7]): 34 (±2) %
CC(=O)O[C@]1(C(C)=O)CC[C@H]2[C@@H]3C=C(Cl)C4=CC(=O)CC[C@]4(C)[C@H]3CC[C@@]21C [chlormadinone acetate]	0 (±15) %	–	4	38.4	–	34.7	–
C#C[C@]1(O)CC[C@H]2[C@@H]3CCc4cc(O)ccc4[C@H]3CC[C@@]21C [ethinylestradiol]	50 (±14) %	–	69	6.68	3.36	1.8	–
C#C[C@]1(OC(C)=O)CC[C@H]2[C@@H]3CCC4=C[C@@H](OC(C)=O)CC[C@@H]4[C@H]3CC[C@@]21C [ethynodiol diacetate]	22 (±14) %	–	35	12.2	13.9	17.7	–
CC(C)(C)NC(=O)[C@H]1CC[C@H]2[C@@H]3CC[C@H]4NC(=O)C=C[C@]4(C)[C@H]3CC[C@]12C [finasteride]	18 (±6) %	–	39	> 100	–	0.78	–
C[C@]12CCC(=O)C(O)=C1CC[C@@H]1[C@@H]2CC[C@]2(C)C(=O)CC[C@@H]12 [formestane]	70 (±8) %	71	–	–	–	–	IC50 (CatSper [2]; [4]): 1.22 µM; EC50 (CatSper [3]; [6]): 0.353 µM
C[C@]12CC[C@@H]3c4ccc(O)cc4C[C@@H](CCCCCCCCC[S+]([O-])CCCC(F)(F)C(F)(F)F)[C@H]3[C@@H]1CC[C@@H]2O (some centres unmarked) [fulvestrant]	22 (±6) %	–	28	–	6.95	2.24	–
C#C[C@]1(O)CC[C@H]2[C@@H]3CCC4=CC(=O)CCC4=C3C=C[C@@]21CC [gestrinone]	11 (±21) %	2	–	–	–	–	IC50 (CatSper [2]; [4]): 33.6 µM
C[C@H](CCC(=O)O)[C@H]1CC[C@H]2[C@@H]3CC[C@@H]4C[C@H](O)CC[C@]4(C)[C@H]3CC[C@]12C [lithocholic acid]	–	59	–	–	–	–	Max P4 inhibition (%) (± SD) (CatSper [2]): 32 (±10) %
C#C[C@]1(O)CC[C@H]2[C@@H]3CCC4=CCCC[C@@H]4[C@H]3CC[C@@]21C [lynestrenol]	47 (±27) %	–	59	11.7	9.36	17.3	–
CC(=O)O[C@]1(C(C)=O)CC[C@H]2[C@@H]3C=C(C)C4=CC(=O)CC[C@]4(C)[C@H]3CC[C@@]21C [megestrol acetate]	-4 (±11) %	–	3	–	–	–	–
CC#C[C@]1(O)CC[C@H]2[C@@H]3CCC4=CC(=O)CCC4=C3[C@@H](c3ccc(N(C)C)cc3)C[C@@]21C [mifepristone]	–	9	–	–	11	13.5	Max P4 inhibition (%) (± SD) (CatSper [2]): 25 (±25) %
CC(=O)O[C@]1(C(C)=O)CC[C@H]2[C@@H]3C=C(C)C4=CC(=O)CC[C@@H]4[C@H]3CC[C@@]21C [nomegestrol acetate]	12 (±17) %	–	19	52	41.2	22.7	–
C#C[C@]1(O)CC[C@H]2[C@@H]3CCC4=CC(=O)CC[C@@H]4[C@H]3CC[C@@]21C [norethindrone]	–	28	–	–	4.35	6.05	Max P4 inhibition (%) (± SD) (CatSper [2]): 22 (±5) %
norgestrel-(-)-d	3 (±5) %	–	–	–	75.6	–	Max amplitude (%) (± SD) (CatSper [3]; [7]): 5 (±3) %
